In ChEMBL document CHEMBL1128853, “Zn(II)-chelating inhibitors of carboxypeptidase A” (Bioorg Med Chem Lett, 1995) one finds Ki data, which are given here for 21 molecules.

In general, pKi refers to the Ki on a negative log10 scale, so that one unit is a factor of ten.

pKi: −log10 of the molar value.

This test can be described thus: Binding affinity against Carboxypeptidase A.
Regarding `CCCCCC(Cc1ccccc1)C(=O)O` (stereo unspecified), the pKi is 3.21.

`O=C(O)CC(CSCCS)Cc1ccccc1` (stereo unspecified) gave a pKi of 4.72.

Regarding `NC(=O)C(CSCCS)Cc1ccccc1` (stereo unspecified), the pKi is 4.54.

`O=C(CC(Cc1ccccc1)C(=O)O)c1ccccc1S` (stereo unspecified) gave a pKi of 5.36.

Turning to `O=C(O)c1cccc(C(=O)NC(Cc2ccccc2)C(=O)O)n1` (stereo unspecified), the pKi is 3.10.

Molecule `O=C(CC/C(=N\O)c1ccccn1)NC(Cc1ccccc1)C(=O)O` (stereo unspecified) showed a pKi of under 3.52.

`O=C(O)C(CCCCS)Cc1ccccc1` (stereo unspecified) had a pKi of 4.35.

`O=C(O)C(Cc1ccccc1)SCCSc1ccccc1` (stereo unspecified) had a pKi of 3.17.

Regarding `O=C(NC(Cc1ccccc1)C(=O)O)c1cnccn1` (stereo unspecified), the pKi is 3.74.

The molecule `CCCSCC(Cc1ccccc1)C(=O)O` (stereo unspecified) showed a pKi of 3.47.

For `O=C(Nc1ccccc1)C(CSCCS)Cc1ccccc1` (stereo unspecified), the negative logarithm of the Ki (pKi) is 4.47.

Turning to `O=C(O)C(CSCCS)Cc1ccccc1` (stereo unspecified), the pKi is 5.38.

With `O=C(O)C(Cc1ccccc1)(Cc1ccccc1)SCCSc1ccccc1`, the pKi was 3.35.

The molecule `O=C(CC(Cc1ccccc1)C(=O)O)c1ccccn1` (stereo unspecified) had a pKi of 4.09. Against the preceding molecule, the pKi is 0.74 log units higher.

`O=C(NC(Cc1ccccc1)C(=O)O)c1ccccn1` (stereo unspecified) had a pKi of 3.43.

As for `O=C(O)C(Cc1ccccc1)NC/C(=N\O)c1ccccn1` (stereo unspecified), the pKi is 3.24.

For `O=C(O)C(C/C(=N\O)c1ccccn1)Cc1ccccc1` (stereo unspecified), the negative-log Ki (pKi) is under 3.52.

The molecule `O=C(O)C(Cc1ccccc1)SCCS` (stereo unspecified) gave a pKi of 4.68.

For `O=C(O)C(CSCCSCc1ccccc1)Cc1ccccc1` (stereo unspecified), the pKi is 3.18. This pKi lies 1.50 log units lower than the previous one.

For `O=C(O)C(CCc1ccccc1S)Cc1ccccc1` (stereo unspecified), the pKi is 5.24.

In turn, `NC(=O)C(CCSCCS)Cc1ccccc1` (stereo unspecified) gave a pKi of 4.04.
